Laboratory results as given in ChEMBL document CHEMBL1201861, “Genomics of Drug Sensitity in Cancer screening data, Wellcome Trust Sanger Institute”.

Columns and labels:
Experiment in all cases: cells
Assay type in all cases: functional, cell-based, Homo sapiens
NTERA-2-cl-D1 = conditions: Homo sapiens, NTERA-2-cl-D1;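 note: inhibition of cell growth, measured with a cell viability assay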
Description: SANGER: Inhibition of human NTERA-S-cl-D1 cell growth in a cell viability assay.

D283 Med = conditions: Homo sapiens, D283 Med
Description: SANGER: Inhibition of human D-283MED cell growth in a cell viability assay.

HCE-T = conditions: Homo sapiens, HCE-T;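 note: cell viability assay read-out, reporting inhibition of HCE-T cell growth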
Description: SANGER: Inhibition of human HCE-T cell growth in a cell viability assay.

GR-ST = conditions: Homo sapiens, GR-ST
Description: SANGER: Inhibition of human GR-ST cell growth in a cell viability assay.

MHH-PREB-1 = conditions: Homo sapiens, MHH-PREB-1;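 note: cell viability assay measuring inhibition of proliferation of human MHH-PREB-1 cells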
Description: SANGER: Inhibition of human MHH-PREB-1 cell growth in a cell viability assay.

NCI-H23 = conditions: Homo sapiens, NCI-H23;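 note: cell viability assay measuring growth inhibition of NCI-H23 cells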
Description: SANGER: Inhibition of human NCI-H23 cell growth in a cell viability assay.

OS-RC-2 = conditions: Homo sapiens, OS-RC-2;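 note: growth inhibition of human OS-RC-2 cells, measured by a cell viability assay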
Description: SANGER: Inhibition of human OS-RC-2 cell growth in a cell viability assay.

MOLT-4 = conditions: Homo sapiens, MOLT-4;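 note: growth inhibition of MOLT-4 cells, determined with a cell viability readout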
Description: SANGER: Inhibition of human MOLT-4 cell growth in a cell viability assay.

VA-ES-BJ = conditions: Homo sapiens, VA-ES-BJ;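 note: growth inhibition of the VA-ES-BJ cell line, read out by a cell viability assay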
Description: SANGER: Inhibition of human VA-ES-BJ cell growth in a cell viability assay.

LS-513 = conditions: Homo sapiens, LS-513
Description: SANGER: Inhibition of human LS-513 cell growth in a cell viability assay.

A4-Fuk = conditions: Homo sapiens, A4-Fuk;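 note: growth inhibition of A4-Fuk cells, read out by a cell viability assay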
Description: SANGER: Inhibition of human A4-Fuk cell growth in a cell viability assay.

GI-1 = conditions: Homo sapiens, GI-1;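 note: growth inhibition of human GI-1 cells, measured with a cell viability readout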
Description: SANGER: Inhibition of human GI-1 cell growth in a cell viability assay.

HT-144 = conditions: Homo sapiens, HT-144
Description: SANGER: Inhibition of human HT-144 cell growth in a cell viability assay.

SCC-15 = conditions: Homo sapiens, SCC-15;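 note: growth inhibition of SCC-15 cells, read out with a cell viability assay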
Description: SANGER: Inhibition of human SCC-15 cell growth in a cell viability assay.

COLO-320-HSR = conditions: Homo sapiens, COLO-320-HSR;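 note: growth inhibition of COLO-320-HSR cells, determined with a cell viability assay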
Description: SANGER: Inhibition of human COLO-320-HSR cell growth in a cell viability assay.

CTV-1 = conditions: Homo sapiens, CTV-1;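 note: growth inhibition of the cell line, read out with a cell viability assay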
Description: SANGER: Inhibition of human CTV-1 cell growth in a cell viability assay.

KALS-1 = conditions: Homo sapiens, KALS-1;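 note: growth inhibition of KALS-1 cells, determined with a cell viability assay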
Description: SANGER: Inhibition of human KALS-1 cell growth in a cell viability assay.

Ramos-2G6-4C10 = conditions: Homo sapiens, Ramos-2G6-4C10;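 note: growth inhibition of the cell line, measured by a cell viability read-out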
Description: SANGER: Inhibition of human Ramos-2G6-4C10 cell growth in a cell viability assay.

Mo = conditions: Homo sapiens, Mo
Description: SANGER: Inhibition of human Mo-T cell growth in a cell viability assay.

no-10 = conditions: Homo sapiens;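 note: growth inhibition of no-10 cells, read out with a cell viability assay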
Description: SANGER: Inhibition of human no-10 cell growth in a cell viability assay.

A388 = conditions: Homo sapiens, A388;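 note: growth inhibition of human A388 cells, read out with a cell viability assay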
Description: SANGER: Inhibition of human A388 cell growth in a cell viability assay.

NB5 = conditions: Homo sapiens, NB5;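 note: growth inhibition of NB5 cells, read out as cell viability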
Description: SANGER: Inhibition of human NB5 cell growth in a cell viability assay.

COLO-829 = conditions: Homo sapiens, COLO-829
Description: SANGER: Inhibition of human COLO-829 cell growth in a cell viability assay.

OCI-AML2 = conditions: Homo sapiens, OCI-AML2;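 note: growth inhibition of OCI-AML2 cells, read out with a cell viability assay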
Description: SANGER: Inhibition of human OCI-AML2 cell growth in a cell viability assay.

SK-MEL-1 = conditions: Homo sapiens, SK-MEL-1;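 note: growth inhibition of human SK-MEL-1 cells, read out by a cell viability assay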
Description: SANGER: Inhibition of human SK-MEL-1 cell growth in a cell viability assay.

EW-18 = conditions: Homo sapiens, EW-18;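 note: growth inhibition of EW-18 cells, read out by a cell viability assay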
Description: SANGER: Inhibition of human EW-18 cell growth in a cell viability assay.

NCI-H747 = conditions: Homo sapiens, NCI-H747;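 note: growth inhibition of human NCI-H747 cells, read out by a cell viability assay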
Description: SANGER: Inhibition of human NCI-H747 cell growth in a cell viability assay.

LS-1034 = conditions: Homo sapiens, LS-1034
Description: SANGER: Inhibition of human LS-1034 cell growth in a cell viability assay.

NCI-H1304 = conditions: Homo sapiens, NCI-H1304;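 note: growth inhibition of the cancer cell line, measured in a cell viability assay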
Description: SANGER: Inhibition of human NCI-H1304 cell growth in a cell viability assay.

KARPAS-299 = conditions: Homo sapiens, KARPAS-299
Description: SANGER: Inhibition of human KARPAS-299 cell growth in a cell viability assay.

TE-11 = conditions: Homo sapiens, TE-11;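 note: growth inhibition of human TE-11 cells, read out by a cell viability assay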
Description: SANGER: Inhibition of human TE-11 cell growth in a cell viability assay.

MSTO-211H = conditions: Homo sapiens, MSTO-211H
Description: SANGER: Inhibition of human MSTO-211H cell growth in a cell viability assay.

DJM-1 = conditions: Homo sapiens, DJM-1;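 note: growth inhibition of human DJM-1 cells, read out by a cell viability assay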
Description: SANGER: Inhibition of human DJM-1 cell growth in a cell viability assay.

EKVX = conditions: Homo sapiens, EKVX;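 note: growth inhibition of human EKVX cells, read out with a cell viability assay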
Description: SANGER: Inhibition of human EKVX cell growth in a cell viability assay.

P30-OHK = conditions: Homo sapiens, P30-OHK;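 note: growth inhibition of the P30-OHK cell line, read out with a cell viability assay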
Description: SANGER: Inhibition of human P30-OHK cell growth in a cell viability assay.

CP66-MEL = conditions: Homo sapiens, CP66-MEL;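 note: growth inhibition of CP66-MEL cells determined in a cell viability assay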
Description: SANGER: Inhibition of human CP66-MEL cell growth in a cell viability assay.

GCIY = conditions: Homo sapiens, GCIY;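 note: growth inhibition of the human GCIY cell line, read out by a cell viability assay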
Description: SANGER: Inhibition of human GCIY cell growth in a cell viability assay.

LB2241-RCC = conditions: Homo sapiens, LB2241-RCC;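 note: cell viability assay measuring how strongly the cultured human renal carcinoma line is prevented from growing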
Description: SANGER: Inhibition of human LB2241-RCC cell growth in a cell viability assay.

NCI-H510A = conditions: Homo sapiens, NCI-H510A;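 note: growth inhibition of NCI-H510A cells, read out with a cell viability assay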
Description: SANGER: Inhibition of human NCI-H510A cell growth in a cell viability assay.

GB-1 = conditions: Homo sapiens, GB-1;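 note: growth of GB-1 cells judged by a viability assay, IC50 marks the concentration inhibiting growth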
Description: SANGER: Inhibition of human GB-1 cell growth in a cell viability assay.

JVM-3 = conditions: Homo sapiens, JVM-3;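 note: growth inhibition of human JVM-3 cells, read out with a cell viability assay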
Description: SANGER: Inhibition of human JVM-3 cell growth in a cell viability assay.

JVM-2 = conditions: Homo sapiens, JVM-2;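 note: growth inhibition of JVM-2 cells determined by a cell viability assay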
Description: SANGER: Inhibition of human JVM-2 cell growth in a cell viability assay.

KP-N-YS = conditions: Homo sapiens, KP-N-YS;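 note: cell viability assay measuring inhibition of cell line growth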
Description: SANGER: Inhibition of human KP-N-YS cell growth in a cell viability assay.

MHH-NB-11 = conditions: Homo sapiens, MHH-NB-11;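 note: growth inhibition of human MHH-NB-11 cells, read out by a cell viability assay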
Description: SANGER: Inhibition of human MHH-NB-11 cell growth in a cell viability assay.

KNS-42 = conditions: Homo sapiens, KNS-42;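 note: growth inhibition of KNS-42 cells, read out with a cell viability assay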
Description: SANGER: Inhibition of human KNS-42 cell growth in a cell viability assay.

NB69 = conditions: Homo sapiens, NB69;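 note: growth inhibition of NB69 cells, determined by a cell viability assay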
Description: SANGER: Inhibition of human NB69 cell growth in a cell viability assay.

KGN = conditions: Homo sapiens, KGN;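 note: growth inhibition of KGN cells, read out with a cell viability assay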
Description: SANGER: Inhibition of human KGN cell growth in a cell viability assay.

EW-1 = conditions: Homo sapiens, EW-1
Description: SANGER: Inhibition of human EW-1 cell growth in a cell viability assay.

MMAC-SF = conditions: Homo sapiens, MMAC-SF;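 note: growth inhibition of human MMAC-SF cells, read out with a cell viability assay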
Description: SANGER: Inhibition of human MMAC-SF cell growth in a cell viability assay.

CO[C@H]1C[C@@H]2CC[C@@H](C)[C@@](O)(O2)C(=O)C(=O)N2CCCC[C@H]2C(=O)O[C@H]([C@H](C)C[C@@H]2CC[C@@H](OC(=O)C(C)(CO)CO)[C@H](OC)C2)CC(=O)[C@H](C)/C=C(\C)[C@@H](O)[C@@H](OC)C(=O)[C@H](C)C[C@H](C)/C=C/C=C/C=C/1C [TEMSIROLIMUS]
IC50 (NTERA-2-cl-D1): 20.7 nM
IC50 (D283 Med): > 0.2 µM
IC50 (HCE-T): 49.2 nM
IC50 (GR-ST): 33.3 nM
IC50 (MHH-PREB-1): 0.495 nM
IC50 (NCI-H23): > 0.2 µM
IC50 (OS-RC-2): 17 nM
IC50 (MOLT-4): 4.31 nM
IC50 (VA-ES-BJ): 5.9 nM
IC50 (LS-513): > 0.2 µM
IC50 (A4-Fuk): 81.8 nM
IC50 (GI-1): 107 nM
IC50 (HT-144): > 0.2 µM
IC50 (SCC-15): 128 nM
IC50 (COLO-320-HSR): > 0.2 µM
IC50 (CTV-1): > 200 nM
IC50 (KALS-1): 149 nM
IC50 (Ramos-2G6-4C10): 0.342 nM
IC50 (Mo): > 0.2 µM
IC50 (no-10): > 0.2 µM
IC50 (A388): > 0.2 µM
IC50 (NB5): 111 nM
IC50 (COLO-829): > 0.2 µM
IC50 (OCI-AML2): > 200 nM
IC50 (SK-MEL-1): > 0.2 µM
IC50 (EW-18): > 0.2 µM
IC50 (NCI-H747): > 0.2 µM
IC50 (LS-1034): > 0.2 µM
IC50 (NCI-H1304): > 0.2 µM
IC50 (KARPAS-299): > 200 nM
IC50 (TE-11): > 200 nM
IC50 (MSTO-211H): 60.1 nM
IC50 (DJM-1): > 0.2 µM
IC50 (EKVX): > 0.2 µM
IC50 (P30-OHK): > 0.2 µM
IC50 (CP66-MEL): > 0.2 µM
IC50 (GCIY): > 0.2 µM
IC50 (LB2241-RCC): 39.3 nM
IC50 (NCI-H510A): > 0.2 µM
IC50 (GB-1): > 200 nM
IC50 (JVM-3): 3.95 nM
IC50 (JVM-2): > 0.2 µM
IC50 (KP-N-YS): > 0.2 µM
IC50 (MHH-NB-11): > 0.2 µM
IC50 (KNS-42): > 0.2 µM
IC50 (NB69): 9.46 nM
IC50 (KGN): > 200 nM
IC50 (EW-1): > 0.2 µM
IC50 (MMAC-SF): > 0.2 µM

CCN(CC)CCNC(=O)c1c(C)[nH]c(/C=C2\C(=O)Nc3ccc(F)cc32)c1C [SUNITINIB]
IC50 (NTERA-2-cl-D1): > 8000 nM
IC50 (D283 Med): > 8 µM
IC50 (HCE-T): > 8000 nM
IC50 (GR-ST): > 8000 nM
IC50 (MHH-PREB-1): 5320 nM
IC50 (NCI-H23): > 8 µM
IC50 (OS-RC-2): 4870 nM
IC50 (MOLT-4): 3400 nM
IC50 (VA-ES-BJ): > 8000 nM
IC50 (LS-513): > 8 µM
IC50 (A4-Fuk): 1340 nM
IC50 (GI-1): > 8000 nM
IC50 (HT-144): > 8 µM
IC50 (SCC-15): > 8000 nM
IC50 (COLO-320-HSR): > 8 µM
IC50 (CTV-1): 1730 nM
IC50 (KALS-1): > 8000 nM
IC50 (Ramos-2G6-4C10): > 8000 nM
IC50 (Mo): > 8 µM
IC50 (no-10): > 8 µM
IC50 (A388): > 8 µM
IC50 (NB5): > 8000 nM
IC50 (COLO-829): > 8 µM
IC50 (OCI-AML2): 1370 nM
IC50 (SK-MEL-1): > 8 µM
IC50 (EW-18): > 8 µM
IC50 (NCI-H747): > 8 µM
IC50 (LS-1034): > 8 µM
IC50 (NCI-H1304): > 8 µM
IC50 (KARPAS-299): 2110 nM
IC50 (TE-11): 1840 nM
IC50 (MSTO-211H): > 8000 nM
IC50 (DJM-1): > 8 µM
IC50 (EKVX): > 8 µM
IC50 (P30-OHK): > 8 µM
IC50 (CP66-MEL): > 8 µM
IC50 (GCIY): > 8 µM
IC50 (LB2241-RCC): > 8000 nM
IC50 (NCI-H510A): > 8 µM
IC50 (GB-1): 710 nM
IC50 (JVM-3): > 8000 nM
IC50 (JVM-2): > 8 µM
IC50 (KP-N-YS): > 8 µM
IC50 (MHH-NB-11): > 8 µM
IC50 (KNS-42): > 8 µM
IC50 (NB69): > 8000 nM
IC50 (KGN): 2600 nM
IC50 (EW-1): 4.68 µM
IC50 (MMAC-SF): 6.11 µM
